Results as given in ChEMBL document CHEMBL1132667, “P2-achiral, P'-extended alpha-ketoamide inhibitors of calpain I” (Bioorg Med Chem Lett, 1999).

The compounds below were run against T1, Calpain-1 catalytic subunit (Homo sapiens, UniProt P07384) (assay: Inhibitory activity against recombinant human Calpain 1).
T1 sequence (P07384 whole entry): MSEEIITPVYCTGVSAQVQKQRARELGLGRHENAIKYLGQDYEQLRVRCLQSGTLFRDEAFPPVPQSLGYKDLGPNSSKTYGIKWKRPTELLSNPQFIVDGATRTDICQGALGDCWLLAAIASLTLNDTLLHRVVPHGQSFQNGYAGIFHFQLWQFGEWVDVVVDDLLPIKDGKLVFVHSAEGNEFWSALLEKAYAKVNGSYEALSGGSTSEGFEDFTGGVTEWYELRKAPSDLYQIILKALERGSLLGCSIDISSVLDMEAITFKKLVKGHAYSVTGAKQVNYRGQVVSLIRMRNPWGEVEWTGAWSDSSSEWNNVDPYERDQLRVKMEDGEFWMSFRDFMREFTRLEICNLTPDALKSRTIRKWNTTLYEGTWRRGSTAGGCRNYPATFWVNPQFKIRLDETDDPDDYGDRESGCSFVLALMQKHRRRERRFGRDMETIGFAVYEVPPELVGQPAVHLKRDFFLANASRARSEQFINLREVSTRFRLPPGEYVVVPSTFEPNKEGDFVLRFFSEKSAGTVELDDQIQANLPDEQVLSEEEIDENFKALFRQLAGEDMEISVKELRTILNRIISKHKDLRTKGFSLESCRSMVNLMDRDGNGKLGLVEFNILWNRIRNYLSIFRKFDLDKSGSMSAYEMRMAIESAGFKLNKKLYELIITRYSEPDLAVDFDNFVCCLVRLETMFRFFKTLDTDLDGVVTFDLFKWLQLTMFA

SMILES | Ki [nM]
O=C(Cc1ccc(Cl)nc1Cl)N[C@@H](Cc1ccccc1)C(=O)C(=O)NCCNS(=O)(=O)c1ccc(-c2ccccn2)s1 | 57
O=C(NCCNS(=O)(=O)c1ccc(-c2cccc(CN3CCOCC3)c2)s1)C(=O)[C@H](Cc1ccccc1)NC(=O)c1c(Cl)cccc1Cl | 21
CC(C)CCC(=O)N[C@@H](Cc1ccccc1)C(=O)C(=O)NCCNS(=O)(=O)c1ccc(-c2ccccn2)s1 | 21

Next, values leading:

Ki [nM] | SMILES
1100 | O=C(CCCc1ccccc1)N[C@@H](Cc1ccccc1)C(=O)C(=O)NCCNS(=O)(=O)c1ccc(-c2ccccn2)s1
1100 | CC(C)C(=O)N[C@@H](Cc1ccccc1)C(=O)C(=O)NCCNS(=O)(=O)c1ccc(-c2ccccn2)s1
420 | CC(C)CC(=O)N[C@@H](Cc1ccccc1)C(=O)C(=O)NCCNS(=O)(=O)c1ccc(-c2ccccn2)s1

These compounds were tested against T1, Calpain-1 catalytic subunit (assay: Inhibitory activity against recombinant human calpain I).

SMILES | Ki [nM]
O=Cc1cccc(-c2ccc(S(=O)(=O)NCCNC(=O)C(=O)[C@H](Cc3ccccc3)NC(=O)c3c(Cl)cccc3Cl)s2)c1 | 15
CC(=O)NCc1cccc(-c2ccc(S(=O)(=O)NCCNC(=O)C(=O)[C@H](Cc3ccccc3)NC(=O)c3c(Cl)cccc3Cl)s2)c1 | 14
O=C(NCCNS(=O)(=O)c1ccc(-c2ccccn2)s1)C(=O)[C@H](Cc1ccccc1)NC(=O)c1c(Cl)cccc1Cl | 26
O=C(N[C@@H](Cc1ccccc1)C(=O)O)c1c(Cl)cccc1Cl | ~360
O=C(NCCNS(=O)(=O)c1ccc(-c2ccccn2)s1)C(=O)[C@H](Cc1ccccc1)NC(=O)c1ccc2c(c1)OCO2 | > 1000
N#Cc1cccc(-c2ccc(S(=O)(=O)NCCNC(=O)C(=O)[C@H](Cc3ccccc3)NC(=O)c3c(Cl)cccc3Cl)s2)c1 | 8
O=C(NCCNS(=O)(=O)c1ccc(-c2ccccn2)s1)C(=O)[C@H](Cc1ccccc1)NC(=O)c1c(F)cccc1F | 14
CC(=O)N1CCN(Cc2ccc(S(=O)(=O)NCCNC(=O)C(=O)[C@H](Cc3ccccc3)NC(=O)c3c(Cl)cccc3Cl)cc2)CC1 | 71
O=C(NCCNS(=O)(=O)c1ccc(-c2ccccn2)s1)C(=O)[C@H](Cc1ccccc1)NC(=O)c1cc(C(F)(F)F)cc(C(F)(F)F)c1 | 430
O=C(NCCNS(=O)(=O)c1ccc(-c2ccccn2)s1)C(=O)[C@H](Cc1ccccc1)NC(=O)c1cc(Cl)ccc1Cl | 49
O=C(NCCNS(=O)(=O)c1ccc(CN2CCN(c3ccccn3)CC2)cc1)C(=O)[C@H](Cc1ccccc1)NC(=O)c1c(Cl)cccc1Cl | 59

The remaining lines, values ahead:

Ki [nM] | SMILES
10 | CS(=O)(=O)N[C@H](COCc1ccccc1)C(=O)N[C@@H](Cc1ccccc1)C(=O)C(=O)NCCNS(=O)(=O)c1ccc(-c2ccccn2)s1
130 | Cc1cccc(C)c1C(=O)N[C@@H](Cc1ccccc1)C(=O)C(=O)NCCNS(=O)(=O)c1ccc(-c2ccccn2)s1
46 | COc1ccc(Cl)c(C(=O)N[C@@H](Cc2ccccc2)C(=O)C(=O)NCCNS(=O)(=O)c2ccc(-c3ccccn3)s2)c1
570 | O=C(NCCNS(=O)(=O)c1ccc(-c2ccccn2)s1)C(=O)[C@H](Cc1ccccc1)NC(=O)c1ccccc1
62 | CC(CCC(=O)N[C@@H](Cc1ccccc1)C(=O)C(=O)NCCNS(=O)(=O)c1ccc(-c2ccccn2)s1)c1ccccc1 (some centres not stated)
